Consider three compounds from publication PMC5046141, “Discovery of Isoquinolinoquinazolinones as a Novel Class of Potent PPARγ Antagonists with Anti-adipogenic Effects” (Scientific Reports, 2016).

Structures are written as SMILES.

The target in one data set is T1, PPARγ2 (Mus musculus, UniProt P37238).
T1 construct: expressed in transfected cells; host or cells: 3T3-L1 (mouse preadipocytes), pCS4 CMV vector
T1 sequence (P37238 1-505): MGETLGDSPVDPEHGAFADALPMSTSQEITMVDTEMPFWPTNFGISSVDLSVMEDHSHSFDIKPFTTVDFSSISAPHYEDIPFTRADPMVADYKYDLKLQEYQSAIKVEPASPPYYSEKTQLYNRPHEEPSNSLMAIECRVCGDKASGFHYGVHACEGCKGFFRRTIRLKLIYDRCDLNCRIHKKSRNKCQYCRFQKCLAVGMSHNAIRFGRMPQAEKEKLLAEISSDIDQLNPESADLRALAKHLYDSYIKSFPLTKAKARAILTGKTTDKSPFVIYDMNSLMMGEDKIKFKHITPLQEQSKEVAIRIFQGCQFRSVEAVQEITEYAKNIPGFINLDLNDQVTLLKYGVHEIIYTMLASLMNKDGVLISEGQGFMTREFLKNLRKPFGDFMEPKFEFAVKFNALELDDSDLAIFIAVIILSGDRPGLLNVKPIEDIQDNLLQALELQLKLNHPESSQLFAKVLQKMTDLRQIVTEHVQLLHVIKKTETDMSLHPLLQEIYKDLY
Briefly: PPRE-Luc luciferase reporter assay of PPARγ2-induced transcriptional activity in 3T3-L1 cells. The settings on record: for inhibition of PPARγ2 transfection (transcriptional activity), with rosiglitazone stimulation / inhibition of PPARγ2 transfection (transcriptional activity), compound alone: 5 μM; for inhibition of PPARγ2 transfection (transcriptional activity), compound alone: without rosiglitazone; for IC50: 3T3-L1 cotransfected with PPARγ2 and PPRE-Luc, read-out: IC50 with respect to PPARγ2-induced transcriptional activity. The class given is cell-based. How it is done:
To analyze whether isoquinolinoquinazolinones inhibit the transactivation of PPARγ, 3T3-L1 cells were cotransfected with full-length PPARγ2 expression vector with a peroxisome proliferator response element (PPRE)-driven luciferase reporter gene (PPRE-Luc) that has been reported to respond to PPARγ[23][24]. […] Titration curves were generated using Graph Pad Prism®, and the IC50 value of each compound with respect to PPARγ2-induced transcriptional activity was determined.
The transcription activity was determined in 3T3-L1 cells transiently co-transfected with PPRE-driven luciferase reporter gene (PPRE-Luc) and PPARγ2 expression vector. […] After 24 h of transfection, the cells were cultured with indicated combination for 12 h. Luciferase activity was measured after 36 h.
For plasmids expressing PPARγ2, full length PPARγ2 (mouse, 1518 bp: NCBI Reference Sequence: NP_035276.2) was subcloned into CMV promoter-derived mammalian expression vector (pCS4). Plasmids for C285G, R288G mutant PPARγ2 were generated by PCR-based site-directed mutagenesis and also subcloned into CMV promoter-derived mammalian expression vector (pCS4).
3T3-L1 cells were transfected for indicated combinations of expression plasmids along with a luciferase reporter plasmid (PPRE-Luc). PPRE-Luc contains the consensus PPAR responsive element (PPRE). pCMV-β-gal was co-transfected for normalization of transfection efficiency. 24 h after transfection, cells were treated with indicated compounds for 12 h. Luciferase activities were measured using a luciferase reporter assay kit (Promega, Madison, WI, USA). Experiments were performed in triplicate and repeated at least three times.
On the technique in general: In a reporter assay the amount or activity of a reporter protein is the signal.

The test system of a further data set is 3T3-L1 preadipocytes. Briefly: Oil Red O staining assay of adipocyte differentiation. The format is cell-based, mouse. The settings on record: for inhibition at 25 µM: Mus musculus, 3T3-L1, relative absorbance from Oil Red O staining at 25 μM, read-out: Inhibitory activity (%) on adipocyte differentiation. On the procedure:
The GW9662-mediated inhibition of PPARγ was confirmed using an Oil Red O staining assay to measure adipocyte differentiation. To investigate whether the novel compounds could inhibit adipocyte differentiation, 3T3-L1 preadipocytes were incubated with differentiation medium (MDI; insulin, dexamethasone, and isobutyl methyl xanthine) in the presence of increasing concentrations of isoquinolinoquinazolinones. Adipogenesis was analyzed using Oil Red O staining after treatment with the compounds.
The mouse preadipocyte cell line 3T3-L1 was maintained at 37 °C in humidified air with 5% CO2. 3T3-L1 cells were cultured in Dulbecco’s modified Eagle medium (DMEM; Life Technologies) supplemented with 10% bovine serum (BS; Gibco Invitrogen, Carlsbad, California, USA) as growth medium. For adipocyte differentiation, cells were cultured for 2 days to full confluence in a 24-well plate and the growth medium was then replaced (day 0) with DMEM supplemented with 10% fetal bovine serum (FBS, Gibco Invitrogen, Carlsbad, California, USA), 5 μg/mL insulin (Sigma, St. Louis, Missouri, USA), 0.5 mM 3-isobutyl-1-methylxanthine (Sigma), and 1 μM dexamethasone (Sigma). After 48 h, the differentiation medium was replaced (day 2) with DMEM + 10% FBS containing 5 μg/mL insulin, and the cells were allowed to accumulate lipid droplets until experimental use.
The accumulation of lipids signifying the formation of adipocytes was observed by staining the differentiated cells with Oil Red O. Following differentiation, cells were washed twice with phosphate-buffered saline (PBS), fixed with 10% formalin for 60 min. Oil Red O stock solution (0.5%) was prepared in isopropanol and filtered in cellulose nitrate filters. Cells were stained with Oil Red O diluted 6:4 in water for 1 h at room temperature. Excess Oil Red O dye was washed off twice with distilled water and then dried. The stained lipid droplets within cells were visualized using an optical microscope and photographed with a digital camera at 100× magnification.

In general, IC50 refers to the concentration that inhibits the measured activity by half. As a reminder, the melting point is the temperature of the solid-liquid transition.

Regarding `O=C(Nc1ccccc1)c1cc([N+](=O)[O-])ccc1Cl` [GW9662, reference compound], at PPARγ2, the “inhibition of PPARγ2 transfection (transcriptional activity), with rosiglitazone stimulation” value was determined as 48%; the “inhibition of PPARγ2 transfection (transcriptional activity), compound alone” value turned out to be 46%; the IC50 amounted to 4.47 µM. In addition, in the data set on 3T3-L1 preadipocytes, the inhibition at 25 µM is 51.4%.
`COc1cc2cc3n(c(=O)c2cc1OC)CNc1ccc(Cl)cc1-3` [Compound 8n, 2-Chloro-10,11-dimethoxy-5H-isoquinolino[2,3-c]quinazolin-8(6H)-one]: the melting point fell in the range of 193.5 to 194.6 °C. Besides, the IC50 on PPARγ2 came out at 5.02 µM. Further, in the data set with 3T3-L1 preadipocytes, the inhibition at 25 µM was 71.5%.
Consider `COc1cc2cc3n(c(=O)c2cc1OC)CNc1cc(Cl)ccc1-3` [Compound 8o, 3-Chloro-10,11-dimethoxy-5H-isoquinolino[2,3-c]quinazolin-8(6H)-one], for which the melting point lay in the range of 228.7 to 230.5 °C. Moreover, at PPARγ2, the “inhibition of PPARγ2 transfection (transcriptional activity), with rosiglitazone stimulation” value amounted to 88%; the “inhibition of PPARγ2 transfection (transcriptional activity), compound alone” value is 82%; the IC50 stood at 2.43 µM. Moreover, the inhibition at 25 µM in the data set on 3T3-L1 preadipocytes worked out at 82.9%. Further, the “Inhibitory activity (%) on adipocyte differentiation” value in the data set with 3T3-L1 preadipocytes (relative absorbance from Oil Red O staining at 25 μM, 25 µM) is 82.4%.
